Source: patent US20160228452A1, “TREATMENT OF METABOLIC DISEASES BY INHIBTION OF HTR2A OR HTR3” (Korea Advanced Institute of Science and Technology, priority 2014, published 2016)

What was measured:
[1] = reference 18; cited from earlier work
[2] = High-fat-diet-induced obesity in mice: growth curves, body weight and eWAT mass; type: in vivo; settings: LP-533401 30 mg/kg orally daily, 10 weeks, SCD or HFD
Text: The generation of Tph^flox/flox mice, Adipoq-cre mice, and aP2-CreERT2 mice has previously been reported^17,30,31. C57BL/6J mice, Htr3a-targeted KO mice (B6.129X1-Htr3a^tm1jul/J, Htr3a KO) and leptin-deficient ob/ob mice (B6.V-Lep^ob/J) were purchased from the Jackson Laboratory (Bar Harbor, Me., USA). To create the adipose tissue-specific Tph1 KO mice, Tph1^flox/flox mice were crossed with Adipoq-Cre mice (Tph1 FKO mice) and aP2-CreERT2 mice (Tph1 AFKO mice). The mice were housed in climate-controlled, specific pathogen-free (SPF) barrier facilities under a 12-h light-dark cycle, and chow and water were provided ad libitum. The Institutional Animal Care and Use Committee at the Korea Advanced Institute of Science and Technology approved the experimental protocols for this study. Htr3a KO mice and Tph1^flox/flox mice were backcrossed with C57BL/6J mice for more than 10 generations. Cre-recombination of 6-week-old Tph1 AFKO mice was induced by intraperitoneal (IP) injection of 5 doses of 2 mg of tamoxifen (Sigma) for 1 week. We fed male mice (aged 8˜10 weeks) either on SCD (standard chow diet; 12% fat calories, Purina Laboratory Rodent Diets 38057) or HFD (60% fat calories, Research Diets D12492). PBS or 300 mg/kg PCPA was administered as a daily intraperitoneal injection. LP-533401 was dissolved in PEG-400 and 5% dextrose (40:60 ratio). Vehicle or 30 mg/kg LP-533401 was administered daily with a feeding needle. We randomly divided C57BL/6J mice into 2-4 groups. For transgenic mice, we compared data between KO mice and their WT littermates. No blinding was done.

[3] = Glucose tolerance test and insulin tolerance test; type: in vivo, mice; settings: LP-533401 30 mg/kg orally, 10 weeks, HFD-fed mice vs HFD-fed control
Description: For the glucose tolerance tests, the mice were administered 2 g/kg D-glucose in PBS after overnight fasting. For the insulin tolerance tests, the mice were intraperitoneally injected with insulin (0.75 U/kg) after being fasted for 4 h. The blood glucose levels in blood samples obtained from tail veins 0, 15, 30, 45, 60, 90 and 120 min after injection were measured using a Gluco DR Plus glucometer (Allmedicus).

Htr3 [4] = target: T1, Htr3 (Mus musculus, UniProt P23979); experiment: Real-time PCR of thermogenic genes in IBAs; type: cell-based; settings: 2 h after Htr3 agonist treatment
T1 construct: we explored the direct actions of Htr3 on BAT using immortalized brown adipocytes (IBAs); endogenous in cells; host or cells: differentiated immortalized brown adipocytes (IBAs)
T1 sequence (P23979 24-489): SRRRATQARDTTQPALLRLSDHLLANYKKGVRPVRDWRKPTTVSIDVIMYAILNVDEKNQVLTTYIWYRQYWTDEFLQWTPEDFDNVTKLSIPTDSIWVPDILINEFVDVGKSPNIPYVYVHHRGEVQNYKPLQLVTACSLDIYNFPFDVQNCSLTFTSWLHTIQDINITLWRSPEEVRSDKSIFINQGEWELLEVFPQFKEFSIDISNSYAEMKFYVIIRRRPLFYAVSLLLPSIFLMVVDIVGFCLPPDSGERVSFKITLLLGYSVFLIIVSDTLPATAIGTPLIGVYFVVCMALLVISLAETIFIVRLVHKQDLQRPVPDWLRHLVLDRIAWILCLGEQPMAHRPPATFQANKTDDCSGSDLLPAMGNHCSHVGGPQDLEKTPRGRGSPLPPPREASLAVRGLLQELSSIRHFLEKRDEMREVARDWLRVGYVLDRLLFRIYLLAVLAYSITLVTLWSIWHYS
T1 sequence (Q9JHJ5 22-437 partner): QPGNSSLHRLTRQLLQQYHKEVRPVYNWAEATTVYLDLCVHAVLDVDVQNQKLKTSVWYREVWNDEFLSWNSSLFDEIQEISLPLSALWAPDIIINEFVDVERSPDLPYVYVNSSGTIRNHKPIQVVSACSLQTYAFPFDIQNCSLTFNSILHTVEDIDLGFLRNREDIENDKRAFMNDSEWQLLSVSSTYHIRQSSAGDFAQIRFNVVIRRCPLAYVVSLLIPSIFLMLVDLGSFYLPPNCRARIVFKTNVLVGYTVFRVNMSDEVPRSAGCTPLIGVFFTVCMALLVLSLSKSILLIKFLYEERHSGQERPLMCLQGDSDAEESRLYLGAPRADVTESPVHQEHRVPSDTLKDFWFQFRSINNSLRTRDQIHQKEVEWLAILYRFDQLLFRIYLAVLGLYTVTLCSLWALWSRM
Description: (§1) IBAs were cultured in DMEM supplemented with 10% FBS and P/S in a humidified atmosphere of 5% CO2 at 37° C.^32. After reaching 95% confluence, the cells were induced to differentiate using DMEM with 10% FBS, 0.5 μg/mL insulin, 1 nM T3, 0.125 mM indomethacin, 2 μg/mL dexamethasone, 0.5 μM IBMX and P/S (day 0). After two days, the medium was replaced with DMEM supplemented with 10% FBS, 0.5 μg/mL insulin, 1 nM T3 and P/S (day 2), and it was changed every two days from days 4 to 8. We confirmed that these cell lines are free from Mycoplasma infection.
Total RNA was extracted from the mouse tissues or cell lines using TRIzol reagent (Invitrogen) according to the manufacturer's protocol. After TURBO DNase (Invitrogen) treatment, 2 μg of total RNA was used to generate complementary DNA with Superscript III reverse transcriptase (Invitrogen). To analyze gene expression, real-time PCR was performed with a ViiA 7 Real-Time PCR system (Applied Biosystems) and the Power SYBR Green PCR master mix (Applied Biosystems). Relative quantification was based on the ddCt method, and ActB was used as an endogenous control (internal control).

Htr3 [5] = target: T1, Htr3; experiment: Western blot for phosphorylation of PKA pathway components in IBAs; type: cell-based; settings: IBAs, Htr3 agonist treatment
Description: as §1
Whole-cell lysates were extracted by incubating cells in RIPA buffer (25 mM Tris-HCl pH 7.6, 150 mM NaCl, 1% NP-40, 1% sodium deoxycholate, 0.1% SDS) plus protease inhibitors (Roche). Supernatant was collected following a brief centrifuge, and protein concentrations in the supernatant were determined using the BCA Protein Assay Kit (Thermo Scientific, Rockford, Ill., USA). The cell lysates were then mixed with equal volumes of 2× Laemmli buffer (4% SDS, 20% glycerol, 10% 2-mercaptoethanol, 0.01% bromophenol blue, and 120 mM Tris-HCl, pH 6.8) and boiled for 5 min at 95° C. Then, the protein samples were separated by SDS-PAGE and transferred to a PVDF membrane (Millipore). […]

Htr3 [6] = target: T1, Htr3; experiment: cAMP assay (competitive ELISA) in immortalized brown adipocytes; type: cell-based; settings: IBAs, 1 uM ondansetron or 100 nM m-CPBG, 15 min
Description: as §1
Differentiated IBAs were treated with 1 uM ondansetron or 100 nM m-CPBG or 1 uM CL-316243 for 15 min. 1 uM […] was used as a positive control. The cAMP competitive ELISA (Promega) was performed according to the manufacturer's instruction. Briefly, cAMP was extracted by adding 0.1 M HCl with 0.5% triton X-100 to the cells. After centrifugation at 600 g for 10 min, the supernatant was used for the determination of cAMP levels by competitive cAMP ELISA.

Ucp1 mRNA level (Htr3 [4]) | phosphorylation of HSL and PKA substrate (Htr3 [5]) | SMILES | crossing of the blood-brain barrier [1] | anti-obesity effects (growth curves) [2] | glucose tolerance (IPGTT) [3] | cAMP level in the absence of β3AR agonist (Htr3 [6])
– | – | Nc1nc(OC(c2ccc(-c3cccc(F)c3)cc2)C(F)(F)F)cc(-c2ccc(C[C@H](N)C(=O)O)cc2)n1 (stereo partly drawn) [LP-533401] | cannot cross the blood-brain barrier | also observed | improved glucose tolerance | –
decreased | decreased | N=C(N)NC(=N)Nc1cccc(Cl)c1 [m-CPBG, 1-(m-chlorophenyl)-biguanide] | – | – | – | did not affect cAMP levels
